Assay results taken from ChEMBL document CHEMBL1143240, “Inhibiting dihydrodipicolinate synthase across species: towards specificity for pathogens?” (Bioorg Med Chem Lett, 2008).
Activity calls are given as the source filed them. The rule behind the calls is not given here.

Legend:
Escherichia coli [1] = experiment: Inhibition of Escherichia coli NAL at 20 mM
Escherichia coli [2] = experiment: Inhibition of Escherichia coli DHDPS at 20 mM
[3] = molecular target: T1, Dihydrodipicolinate synthase (Bacillus anthracis) (UniProt A0A6L7H340); experiment: Inhibition of Bacillus anthracis DHDPS at 20 mM
T1 sequence (whole entry): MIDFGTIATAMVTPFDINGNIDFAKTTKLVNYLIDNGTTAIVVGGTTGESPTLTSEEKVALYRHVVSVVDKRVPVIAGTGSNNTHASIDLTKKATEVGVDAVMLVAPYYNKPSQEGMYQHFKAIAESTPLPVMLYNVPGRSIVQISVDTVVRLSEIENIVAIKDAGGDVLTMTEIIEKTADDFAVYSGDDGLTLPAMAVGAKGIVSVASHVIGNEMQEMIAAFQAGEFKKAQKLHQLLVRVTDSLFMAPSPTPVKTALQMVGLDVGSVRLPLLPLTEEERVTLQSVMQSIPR

[4] = molecular target: 4-hydroxy-tetrahydrodipicolinate synthase (Mycobacterium tuberculosis) (UniProt P9WP25); experiment: Inhibition of Mycobacterium tuberculosis DHDPS at 20 mM
Staphylococcus aureus = experiment: Inhibition of methicillin-resistant Staphylococcus aureus DHDPS at 20 mM
[5] = Inhibition of Escherichia coli DHDPS
Escherichia coli [6] = experiment: Antibacterial activity against Escherichia coli at 20 uM relative to control; assay type: functional, organism-based

`COC(=O)[C@@H]1CCC[C@H](C(=O)OC)N1` gave an inhibition (Escherichia coli [1]) of 18%, an inhibition (Escherichia coli [2]) of 92% and an inhibition [3] of 99%. For the same compound, the inhibition [4] was 24% and the inhibition (Staphylococcus aureus) was 58%.
`COC(=O)[C@@H]1CSC[C@@H](C(=O)OC)N1` gave an inhibition (Escherichia coli [1]) of 0%, an inhibition (Escherichia coli [2]) of 12% and an inhibition [3] of 19%. It also gave an inhibition [4] of 0% and an inhibition (Staphylococcus aureus) of 0%.
`O=C(O)[C@@H]1CCC[C@H](C(=O)O)N1` showed an inhibition (Escherichia coli [1]) of 21%, an inhibition (Escherichia coli [2]) of 49% and an inhibition [3] of 73%. The inhibition [4] was 43% and the inhibition (Staphylococcus aureus) was 51%.
Work on `COC(=O)[C@@H]1C[S@@+]([O-])C[C@H](C(=O)OC)N1` yielded an inhibition (Escherichia coli [1]) of 0%, an inhibition (Escherichia coli [2]) of 8% and an inhibition [3] of 8%. The inhibition [4] was 1% and the inhibition (Staphylococcus aureus) was 10%.
Work on `N[C@@H](CC=O)C(=O)O` yielded a Ki [5] of 14 mM.
In the case of `O=C(O)c1cc(=O)cc(C(=O)O)[nH]1`, the inhibition (Escherichia coli [1]) is reported as 27%, the inhibition (Escherichia coli [2]) is reported as 74% and the inhibition [3] is reported as 0%. The inhibition [4] was 73%, the inhibition (Staphylococcus aureus) was 83% and the Activity (Escherichia coli [6]) was “Active”.
With `COC(=O)[C@@H]1CS(=O)(=O)C[C@H](C(=O)OC)N1` the inhibition (Escherichia coli [1]) was 3%, the inhibition (Escherichia coli [2]) was 0% and the inhibition [3] was 19%. The inhibition [4] was 6%, the inhibition (Staphylococcus aureus) was 0% and the Activity (Escherichia coli [6]) was “inactive”.
Compound `COC(=O)c1cc(=O)cc(C(=O)OC)[nH]1` has an inhibition (Escherichia coli [1]) of 64%, an inhibition (Escherichia coli [2]) of 85% and an inhibition [3] of 0%. The inhibition [4] was 84% and the inhibition (Staphylococcus aureus) was 88%.
`COC(=O)[C@@H]1C[S@+]([O-])C[C@H](C(=O)OC)N1` gave an inhibition (Escherichia coli [1]) of 38%, an inhibition (Escherichia coli [2]) of 20% and an inhibition [3] of 22%. The inhibition [4] was 14% and the inhibition (Staphylococcus aureus) was 12%.
Work on `COC(=O)[C@@H]1CS(=O)(=O)C[C@@H](C(=O)OC)N1` yielded an inhibition (Escherichia coli [1]) of 0%, an inhibition (Escherichia coli [2]) of 14% and an inhibition [3] of 6%. The inhibition [4] was 7% and the inhibition (Staphylococcus aureus) was 0%.
For `CC(=O)C(=O)O` [PYRUVATE], the Ki [5] was 7 mM.
Work on `COC(=O)[C@@H]1CSC[C@H](C(=O)OC)N1` yielded an inhibition (Escherichia coli [1]) of 1%, an inhibition (Escherichia coli [2]) of 35% and an inhibition [3] of 23%. The inhibition [4] was 0% and the inhibition (Staphylococcus aureus) was 0%.
With `COC(=O)c1cccc(C(=O)OC)n1` the inhibition (Escherichia coli [1]) was 0%, the inhibition (Escherichia coli [2]) was 5% and the inhibition [3] was 13%. It also gave an inhibition [4] of 0% and an inhibition (Staphylococcus aureus) of 0%.
`O=C(O)c1cccc(C(=O)O)n1` showed an inhibition (Escherichia coli [1]) of 1%, an inhibition (Escherichia coli [2]) of 76% and an inhibition [3] of 80%. It also gave an inhibition [4] of 75% and an inhibition (Staphylococcus aureus) of 67%.
Compound `COC(=O)[C@@H]1C[S+]([O-])C[C@@H](C(=O)OC)N1` (some centres undefined) has an inhibition (Escherichia coli [1]) of 7%, an inhibition (Escherichia coli [2]) of 0% and an inhibition [3] of 7%. The inhibition [4] was 0% and the inhibition (Staphylococcus aureus) was 7%.
